This is an account of results in patent US20240050428A1 (Cullgen (Shanghai), Inc., priority 2020, published 2024).

In experiment [1] the test system is MOLM-13 cells. The experiment in a line: Cell viability assay (CellTiter-Glo) in MOLM-13 cells, alone or with gilteritinib. The note with it: Homo sapiens, MOLM-13, 72 h, MOLM-13 cells, three days, CellTiter-Glo. In kind it is cell-based. In general terms: In ATP-based viability assays light output follows the ATP content of the culture.
The subject of experiment [2] is MV4;11 cells. The experiment in a line: Cell viability assay (CellTiter-Glo) in MV4;11 cells, alone or with gilteritinib. It counts as cell-based. The conditions noted are these: Homo sapiens, MV4-11, 72 h, MV4;11 cells, three days, CellTiter-Glo, read-out: MV4.
Where [3] appears, read: compound alone (without gilteritinib), read-out: MOLM-13 IC50.
The mark [4] stands for this setting: with gilteritinib 20 nM, read-out: MOLM-13 IC50 gilteritinib.
[5] abbreviates: compound alone (without gilteritinib), 11 IC50.
The mark [6] stands for this setting: with gilteritinib 10 nM, 11 IC50 gilteritinib.

Where two headings read alike, the source gives them in different places.

Consider `O=C1CCC(N2C(=O)c3ccc(NC[C@H]4C[C@H](n5cc(-c6cnc7ccccc7n6)cn5)C4)cc3C2=O)C(=O)N1` (stereo partly drawn) [GS-178, 2-(2,6-Dioxopiperidin-3-yl)-5-(((trans-3-(4-(quinoxalin-2-yl)-1H-pyrazol-1-yl)cyclobutyl)methyl)amino)isoindoline-1,3-dione], for which the IC50 in experiment [1] (setting [3]) lay in the range of 100 to 1000 nM; in experiment [1] (setting [4]) it was 10 to 100 nM; in experiment [2] (setting [5]), 10 to 100 nM; in experiment [2] (setting [6]), 10 to 100 nM.

For `O=C1CCC(N2C(=O)c3ccc(NC[C@H]4C[C@@H](n5cc(-c6cnc7ccccc7n6)cn5)C4)cc3C2=O)C(=O)N1` (stereo partly drawn) [GS-179, 2-(2,6-Dioxopiperidin-3-yl)-5-(((cis-3-(4-(quinoxalin-2-yl)-1H-pyrazol-1-yl)cyclobutyl)methyl)amino)isoindoline-1,3-dione], the IC50 in experiment [1] (setting [3]) was over 1000 nM; in experiment [1] (setting [4]), 100 to 1000 nM; in experiment [2] (setting [5]) it was over 1000 nM; in experiment [2] (setting [6]) it was over 1000 nM.

As for `O=C1CCC(N2C(=O)c3ccc(NC[C@H]4C[C@H](n5cc(-c6cnc7ccc(C8CCOCC8)cc7n6)cn5)C4)cc3C2=O)C(=O)N1` (stereo partly drawn) [GS-180, 2-(2,6-Dioxopiperidin-3-yl)-5-(((trans-3-(4-(7-(tetrahydro-2H-pyran-4-yl)quinoxalin-2-yl)-1H-pyrazol-1-yl)cyclobutyl)methyl)amino)isoindoline-1,3-dione], the IC50 in experiment [1] (setting [3]) lay within 100 to 1000 nM; in experiment [1] (setting [4]), 10 to 100 nM; in experiment [2] (setting [5]) it was 100 to 1000 nM; in experiment [2] (setting [6]), 10 to 100 nM.

Turning to `O=C1CCC(N2C(=O)c3ccc(NCCC[C@H]4C[C@H](n5cc(-c6cnc7ccc(C8CCOCC8)cc7n6)cn5)C4)cc3C2=O)C(=O)N1` (stereo partly drawn) [GS-181, 2-(2,6-Dioxopiperidin-3-yl)-5-((3-(trans-3-(4-(7-(tetrahydro-2H-pyran-4-yl)quinoxalin-2-yl)-1H-pyrazol-1-yl)cyclobutyl)propyl)amino)isoindoline-1,3-dione], the IC50 in experiment [1] (setting [3]) was 10 to 100 nM; in experiment [1] (setting [4]), under 10 nM; in experiment [2] (setting [5]), 10 to 100 nM; in experiment [2] (setting [6]), under 10 nM.

Regarding `O=C1CCC(N2C(=O)c3ccc(NCCC[C@H]4C[C@@H](n5cc(-c6cnc7ccc(C8CCOCC8)cc7n6)cn5)C4)cc3C2=O)C(=O)N1` (stereo partly drawn) [GS-182, 2-(2,6-Dioxopiperidin-3-yl)-5-((3-(cis-3-(4-(7-(tetrahydro-2H-pyran-4-yl)quinoxalin-2-yl)-1H-pyrazol-1-yl)cyclobutyl)propyl)amino)isoindoline-1,3-dione], the IC50 is 100 to 1000 nM in experiment [1] (setting [3]), under 10 nM in experiment [1] (setting [4]), 100 to 1000 nM in experiment [2] (setting [5]) and 10 to 100 nM in experiment [2] (setting [6]).

`O=C1CCC(N2C(=O)c3ccc(NC4CCC(CCn5cc(-c6cnc7ccccc7n6)cn5)CC4)cc3C2=O)C(=O)N1` (stereo not shown) [GS-183, 2-(2,6-Dioxopiperidin-3-yl)-5-((4-(2-(4-(quinoxalin-2-yl)-1H-pyrazol-1-yl)ethyl)cyclohexyl)amino)isoindoline-1,3-dione]: the IC50 in experiment [1] (setting [3]) is over 1000 nM; in experiment [1] (setting [4]), 100 to 1000 nM; in experiment [2] (setting [5]), 100 to 1000 nM; in experiment [2] (setting [6]), 100 to 1000 nM.

As for `O=C1CCC(N2C(=O)c3ccc(NC4CCC(CCCn5cc(-c6cnc7ccccc7n6)cn5)CC4)cc3C2=O)C(=O)N1` (stereo not shown) [GS-184, 2-(2,6-Dioxopiperidin-3-yl)-5-((4-(3-(4-(quinoxalin-2-yl)-1H-pyrazol-1-yl)propyl)cyclohexyl)amino)isoindoline-1,3-dione], the IC50 is over 1000 nM in experiment [1] (setting [3]), 100 to 1000 nM in experiment [1] (setting [4]), 100 to 1000 nM in experiment [2] (setting [5]) and over 1000 nM in experiment [2] (setting [6]).

On to `CN1CCN(c2ccc3ncc(-c4cnn([C@H]5C[C@H](CNc6ccc7c(c6)C(=O)N(C6CCC(=O)NC6=O)C7=O)C5)c4)nc3c2)CC1` (stereo partly drawn) [GS-185, 2-(2,6-Dioxopiperidin-3-yl)-5-(((trans-3-(4-(7-(4-methylpiperazin-1-yl)quinoxalin-2-yl)-1H-pyrazol-1-yl)cyclobutyl)methyl)amino)isoindoline-1,3-dione], for which the IC50 in experiment [1] (setting [3]) is 100 to 1000 nM; in experiment [1] (setting [4]) it was 10 to 100 nM; in experiment [2] (setting [5]), 100 to 1000 nM; in experiment [2] (setting [6]), 10 to 100 nM.

As to `O=C1CCC(N2C(=O)c3ccc(NC[C@H]4C[C@@H](n5cc(-c6cnc7ccc(N8CCNCC8)cc7n6)cn5)C4)cc3C2=O)C(=O)N1` (stereo partly drawn) [GS-186, 2-(2,6-Dioxopiperidin-3-yl)-5-(((cis-3-(4-(7-(piperazin-1-yl)quinoxalin-2-yl)-1H-pyrazol-1-yl)cyclobutyl)methyl)amino)isoindoline-1,3-dione], the IC50 in experiment [1] (setting [3]) was over 1000 nM; in experiment [1] (setting [4]), 100 to 1000 nM; in experiment [2] (setting [5]) it was over 1000 nM; in experiment [2] (setting [6]), over 1000 nM.

For `O=C1CCC(N2C(=O)c3ccc(NC[C@H]4C[C@H](n5cc(-c6cnc7ccc(N8CCNCC8)cc7n6)cn5)C4)cc3C2=O)C(=O)N1` (stereo partly drawn) [GS-187, 2-(2,6-Dioxopiperidin-3-yl)-5-(((trans-3-(4-(7-(piperazin-1-yl)quinoxalin-2-yl)-1H-pyrazol-1-yl)cyclobutyl)methyl)amino)isoindoline-1,3-dione], the IC50 in experiment [1] (setting [3]), in experiment [1] (setting [4]), in experiment [2] (setting [5]) and in experiment [2] (setting [6]) was over 1000 nM each time.

Consider `O=C1CCC(N2C(=O)c3ccc(NCCC[C@H]4C[C@H](n5cc(-c6cnc7ccc(N8CCOCC8)cc7n6)cn5)C4)cc3C2=O)C(=O)N1` (stereo partly drawn) [GS-188, 2-(2,6-Dioxopiperidin-3-yl)-5-((3-(trans-3-(4-(7-morpholinoquinoxalin-2-yl)-1H-pyrazol-1-yl)cyclobutyl)propyl)amino)isoindoline-1,3-dione], for which the IC50 was 10 to 100 nM in experiment [1] (setting [3]), under 10 nM in experiment [1] (setting [4]), 10 to 100 nM in experiment [2] (setting [5]) and under 10 nM in experiment [2] (setting [6]).

As to `O=C1CCC(N2C(=O)c3ccc(NC[C@H]4C[C@@H](n5cc(-c6cnc7ccc(N8CCOCC8)cc7n6)cn5)C4)cc3C2=O)C(=O)N1` (stereo partly drawn) [GS-189, 2-(2,6-Dioxopiperidin-3-yl)-5-(((cis-3-(4-(7-morpholinoquinoxalin-2-yl)-1H-pyrazol-1-yl)cyclobutyl)methyl)amino)isoindoline-1,3-dione], the IC50 was 100 to 1000 nM in experiment [1] (setting [3]), 100 to 1000 nM in experiment [1] (setting [4]), 100 to 1000 nM in experiment [2] (setting [5]) and over 1000 nM in experiment [2] (setting [6]).

With `CN1CCN(c2ccc3ncc(-c4cnn([C@H]5C[C@@H](CNc6ccc7c(c6)C(=O)N(C6CCC(=O)NC6=O)C7=O)C5)c4)nc3c2)CC1` (stereo partly drawn) [GS-190, 2-(2,6-Dioxopiperidin-3-yl)-5-(((cis-3-(4-(7-(4-methylpiperazin-1-yl)quinoxalin-2-yl)-1H-pyrazol-1-yl)cyclobutyl)methyl)amino)isoindoline-1,3-dione], the IC50 was over 1000 nM in experiment [1] (setting [3]), 100 to 1000 nM in experiment [1] (setting [4]), over 1000 nM in experiment [2] (setting [5]) and over 1000 nM in experiment [2] (setting [6]).

Take `O=C1CCC(N2C(=O)c3ccc(NC[C@H]4C[C@H](n5cc(-c6cnc7ccc(N8CCOCC8)cc7n6)cn5)C4)cc3C2=O)C(=O)N1` (stereo partly drawn) [GS-191, 2-(2,6-Dioxopiperidin-3-yl)-5-(((trans-3-(4-(7-morpholinoquinoxalin-2-yl)-1H-pyrazol-1-yl)cyclobutyl)methyl)amino)isoindoline-1,3-dione]: the IC50 is 10 to 100 nM in experiment [1] (setting [3]), under 10 nM in experiment [1] (setting [4]), 10 to 100 nM in experiment [2] (setting [5]) and under 10 nM in experiment [2] (setting [6]).

On to `O=C1CCC(N2C(=O)c3ccc(NCC4CC(C(=O)N5CCC(n6cc(-c7cnc8ccccc8n7)cn6)CC5)C4)cc3C2=O)C(=O)N1` (stereo not shown) [GS-192, 2-(2,6-Dioxopiperidin-3-yl)-5-(((3-(4-(4-(quinoxalin-2-yl)-1H-pyrazol-1-yl)piperidine-1-carbonyl)cyclobutyl)methyl)amino)isoindoline-1,3-dione], for which the IC50 in experiment [1] (setting [3]) was over 1000 nM; in experiment [1] (setting [4]), 10 to 100 nM; in experiment [2] (setting [5]), 100 to 1000 nM; in experiment [2] (setting [6]), 10 to 100 nM.

Take `O=C1CCC(N2C(=O)c3ccc(NC[C@H]4C[C@@H](n5cc(-c6cnc7ccc(C8CCOCC8)cc7n6)cn5)C4)cc3C2=O)C(=O)N1` (stereo partly drawn) [GS-193, 2-(2,6-Dioxopiperidin-3-yl)-5-(((cis-3-(4-(7-(tetrahydro-2H-pyran-4-yl)quinoxalin-2-yl)-1H-pyrazol-1-yl)cyclobutyl)methyl)amino)isoindoline-1,3-dione]: the IC50 is 100 to 1000 nM in experiment [1] (setting [3]), 100 to 1000 nM in experiment [1] (setting [4]), over 1000 nM in experiment [2] (setting [5]) and 100 to 1000 nM in experiment [2] (setting [6]).

For the compound `O=C1CCC(N2C(=O)c3ccc(NCCC45CC(C(=O)N6CCC(n7cc(-c8cnc9ccccc9n8)cn7)CC6)(C4)C5)cc3C2=O)C(=O)N1` (stereo not shown) [GS-194, 2-(2,6-Dioxopiperidin-3-yl)-5-((2-(3-(4-(4-(quinoxalin-2-yl)-1H-pyrazol-1-yl)piperidine-1-carbonyl)bicyclo[1.1.1]pentan-1-yl)ethyl)amino)isoindoline-1,3-dione], the IC50 in experiment [1] (setting [3]) was 100 to 1000 nM; in experiment [1] (setting [4]), under 10 nM; in experiment [2] (setting [5]), 10 to 100 nM; in experiment [2] (setting [6]), under 10 nM.

For `O=C1CCC(N2C(=O)c3ccc(NCCC[C@H]4C[C@H](n5cc(-c6cnc7ccc(N8CCNCC8)cc7n6)cn5)C4)cc3C2=O)C(=O)N1` (stereo partly drawn) [GS-195, 2-(2,6-Dioxopiperidin-3-yl)-5-((3-(trans-3-(4-(7-(piperazin-1-yl)quinoxalin-2-yl)-1H-pyrazol-1-yl)cyclobutyl)propyl)amino)isoindoline-1,3-dione], the IC50 in experiment [1] (setting [3]) is 100 to 1000 nM; in experiment [1] (setting [4]) it was under 10 nM; in experiment [2] (setting [5]), 100 to 1000 nM; in experiment [2] (setting [6]), under 10 nM.

For the compound `O=C1CCC(N2C(=O)c3ccc(NCCC[C@H]4C[C@H](n5cc(-c6cnc7ccc(NC8CCNCC8)cc7n6)cn5)C4)cc3C2=O)C(=O)N1` (stereo partly drawn) [GS-196, 2-(2,6-Dioxopiperidin-3-yl)-5-((3-(trans-3-(4-(7-(piperidin-4-ylamino)quinoxalin-2-yl)-1H-pyrazol-1-yl)cyclobutyl)propyl)amino)isoindoline-1,3-dione], the IC50 was 10 to 100 nM in experiment [1] (setting [3]), under 10 nM in experiment [1] (setting [4]), 10 to 100 nM in experiment [2] (setting [5]) and under 10 nM in experiment [2] (setting [6]).
